# Reference: patent US20250073244A1, “CRYSTALLINE FORMS OF PENTAAZA MACROCYCLIC RING COMPLEX” (Galera Labs, LLC, priority 2023, published 2025)
# Assay: Crystallization from hot saturated solutions by slow cooling
# Conditions: slow cooling 50° C. to 5° C. at 0.1° C./min
# Protocol: Approximate 100 mg of drug substance was dissolved in the minimal amount of selected solvents at 50° C. Obtained solutions were cooled to 5° C. at 0.1° C./min. Precipitates were collected by filtration. The solid part (wet cake) was investigated by XRPD. When differences were observed, additional investigations were performed (e.g. DSC, TGA. FT-IR, PLM/SEM, etc.).
# Scale up: About 200 mg of drug substance will be dissolved in MEK. Obtained solutions will be applied with cooling rate of 0.1° C./min for slow cooling.
smiles,measurement,setting,value
CCC(=O)[O][Mn][O]C(=O)CC.c1cc2nc(c1)CN[C@H]1CCCC[C@@H]1NCCN[C@H]1CCCC[C@@H]1NC2 [API],Comments,Acetone,API was soluble in the solvent
same,purity,EtOAc,"White solid, purity 100%"
same,Comments,IPA,API was soluble in the solvent
same,Comments,IPAC,API was soluble in the solvent
same,purity,MEK,"White solid, purity 100%"
same,Comments,Water,API was soluble in the solvent
